Experimental data reported in PMC5908784, “Extracellular loops 2 and 3 of the calcitonin receptor selectively modify agonist binding and efficacy” (Biochemical Pharmacology, 2018).
Residue numbers refer to the chain shown, from its start. Where a SMILES comes first, the peptide text is derived from it. Bridges are numbered along the chain shown (N, C = ends).

What was measured:
Assay in all cases: cAMP accumulation
Type in all cases: cell-based
hCTR C289A = target: T1, hCTR C289A (Homo sapiens, UniProt P30988, C289A); conditions: mean ± S.E.M.; for Emax: cAMP maximal response, SEM
T1 construct: c-Myc (N); expressed in transfected cells
T1 sequence (P30988 25-474 C289A): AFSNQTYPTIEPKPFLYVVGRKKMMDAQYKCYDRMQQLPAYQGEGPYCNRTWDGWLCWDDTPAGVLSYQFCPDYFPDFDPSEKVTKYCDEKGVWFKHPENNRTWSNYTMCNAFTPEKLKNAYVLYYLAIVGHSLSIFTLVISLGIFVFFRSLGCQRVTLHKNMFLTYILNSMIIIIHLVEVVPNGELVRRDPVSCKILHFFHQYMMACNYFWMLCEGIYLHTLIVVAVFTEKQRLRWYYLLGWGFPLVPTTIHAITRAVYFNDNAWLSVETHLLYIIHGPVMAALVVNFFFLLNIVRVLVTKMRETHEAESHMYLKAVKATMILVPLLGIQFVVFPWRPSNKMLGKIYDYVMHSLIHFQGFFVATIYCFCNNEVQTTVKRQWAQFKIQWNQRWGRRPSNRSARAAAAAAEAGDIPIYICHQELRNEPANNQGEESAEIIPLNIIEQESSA
Summary of the method: (§1)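 Plated cells were incubated overnight and then challenged with rising ligand concentrations for 30 min alongside IBMX. Medium was replaced by absolute ethanol, which was evaporated at room temperature before cAMP determination. Values are normalized to 100 μM forskolin.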

hCTR I279A = target: T2, hCTR I279A (Homo sapiens, UniProt P30988, I279A); conditions: mean ± S.E.M.; for Emax: cAMP maximal response, SEM; for EC50: cAMP, CV1-FlpIn cells, 30 min, IBMX
T2 construct: expressed in transfected cells
T2 sequence (P30988 25-474 I279A): T1 sequence (P30988 25-474 C289A) with I255A, A265C
Summary of the method: as §1

hCTR S364A = target: T3, hCTR S364A (Homo sapiens, UniProt P30988, S364A); conditions: mean ± S.E.M.; for Emax: cAMP maximal response, SEM; for EC50: cAMP, CV1-FlpIn cells, 30 min, IBMX
T3 construct: c-Myc (N); expressed in transfected cells
T3 sequence (P30988 25-474 S364A): T1 sequence (P30988 25-474 C289A) with A265C, S340A
Summary of the method: as §1

hCTR V358A = target: T4, hCTR V358A (Homo sapiens, UniProt P30988, V358A); conditions: mean ± S.E.M.; for Emax: cAMP maximal response, SEM; for EC50: cAMP, CV1-FlpIn cells, 30 min, IBMX
T4 construct: c-Myc (N); expressed in transfected cells
T4 sequence (P30988 25-474 V358A): T1 sequence (P30988 25-474 C289A) with A265C, V334A
Summary of the method: as §1

hCTR WT = target: T5, hCTR WT (Homo sapiens, UniProt P30988); conditions: mean ± S.E.M.; for Emax: cAMP maximal response, SEM; for EC50: cAMP, CV1-FlpIn cells, 30 min, IBMX
T5 construct: expressed in transfected cells
T5 sequence (P30988 25-474): T1 sequence (P30988 25-474 C289A) with A265C
Summary of the method: as §1

Row | Compound | Emax (hCTR C289A) | Emax (hCTR I279A) | Emax (hCTR S364A) | Emax (hCTR V358A) | Emax (hCTR WT) | EC50 (hCTR I279A) | EC50 (hCTR S364A) | EC50 (hCTR V358A) | EC50 (hCTR WT) | EC50 (hCTR C289A; cAMP, CV1-FlpIn cells, 30 min, IBMX)
1 | CC(C)C[C@H](NC(=O)[C@H](CC(N)=O)NC(=O)[C@H](CC(N)=O)NC(=O)[C@H](CO)NC(=O)[C@H](CO)NC(=O)[C@H](CCCNC(=N)N)NC(=O)[C@@H](NC(=O)[C@H](CC(C)C)NC(=O)[C@H](Cc1ccccc1)NC(=O)[C@H](CC(N)=O)NC(=O)[C@H](C)NC(=O)[C@H](CC(C)C)NC(=O)[C@H](CCCNC(=N)N)NC(=O)[C@H](CCC(N)=O)NC(=O)[C@@H](NC(=O)[C@H](C)NC(=O)[C@@H]1CSSC[C@H](NC(=O)[C@@H](N)CCCCN)C(=O)N[C@@H](CC(N)=O)C(=O)N[C@@H]([C@@H](C)O)C(=O)N[C@@H](C)C(=O)N[C@@H]([C@@H](C)O)C(=O)N1)[C@@H](C)O)C(C)C)C(=O)NCC(=O)N1CCC[C@H]1C(=O)N[C@H](C(=O)N[C@@H](CC(C)C)C(=O)N1CCC[C@H]1C(=O)N1CCC[C@H]1C(=O)N[C@H](C(=O)N[C@@H](CC(N)=O)C(=O)N[C@H](C(=O)NCC(=O)N[C@@H](CO)C(=O)N[C@@H](CC(N)=O)C(=O)N[C@H](C(=O)N[C@@H](Cc1ccc(O)cc1)C(N)=O)[C@@H](C)O)C(C)C)[C@@H](C)O)C(C)C [rAmy] | 89 ± 23% | 81 ± 9% | 56 ± 7% | 94 ± 13% | 100 ± 4% |  |  |  |  | 
2 | CC[C@H](C)[C@H](NC(=O)[C@H](C)NC(=O)[C@@H](NC(=O)[C@H](CCC(N)=O)NC(=O)[C@@H]1CCCN1C(=O)[C@H](Cc1ccccc1)NC(=O)[C@@H](NC(=O)[C@H](Cc1c[nH]cn1)NC(=O)[C@H](Cc1ccccc1)NC(=O)[C@H](CCCCN)NC(=O)[C@H](CC(N)=O)NC(=O)[C@H](Cc1ccccc1)NC(=O)[C@H](CC(=O)O)NC(=O)[C@H](CCC(N)=O)NC(=O)[C@@H](NC(=O)[C@H](Cc1ccc(O)cc1)NC(=O)[C@@H](NC(=O)CNC(=O)[C@H](CC(C)C)NC(=O)[C@H](CCSC)NC(=O)[C@@H]1CSSC[C@H](N)C(=O)NCC(=O)N[C@@H](CC(N)=O)C(=O)N[C@@H](CC(C)C)C(=O)N[C@@H](CO)C(=O)N[C@@H]([C@@H](C)O)C(=O)N1)[C@@H](C)O)[C@@H](C)O)[C@@H](C)O)[C@@H](C)O)C(=O)NCC(=O)N[C@H](C(=O)NCC(=O)N[C@@H](C)C(=O)N1CCC[C@H]1C(N)=O)C(C)C [hCT] | 148 ± 7% | 91 ± 4% | 97 ± 9% | 98 ± 4% | 100 ± 2% |  |  |  |  | 
3 | CC(C)C[C@H](NC(=O)CNC(=O)[C@H](C)NC(=O)[C@H](CC(C)C)NC(=O)[C@H](CCCNC(=N)N)NC(=O)[C@H](Cc1cnc[nH]1)NC(=O)[C@@H](NC(=O)[C@@H](NC(=O)[C@@H]1CSSC[C@H](NC(=O)[C@H](C)N)C(=O)N[C@@H](CC(=O)O)C(=O)N[C@@H]([C@@H](C)O)C(=O)N[C@@H](C)C(=O)N[C@@H]([C@@H](C)O)C(=O)N1)C(C)C)[C@@H](C)O)C(=O)N[C@@H](CC(C)C)C(=O)N[C@@H](CO)C(=O)N[C@@H](CCCNC(=N)N)C(=O)N[C@@H](CO)C(=O)NCC(=O)NCC(=O)N[C@H](C(=O)N[C@H](C(=O)N[C@@H](CCCCN)C(=O)N[C@@H](CC(N)=O)C(=O)N[C@@H](CC(N)=O)C(=O)N[C@@H](Cc1ccccc1)C(=O)N[C@H](C(=O)N1CCC[C@H]1C(=O)N[C@H](C(=O)N[C@@H](CC(N)=O)C(=O)N[C@H](C(=O)NCC(=O)N[C@@H](CO)C(=O)N[C@@H](CCCCN)C(=O)N[C@@H](C)C(=O)N[C@@H](Cc1ccccc1)C(N)=O)C(C)C)[C@@H](C)O)C(C)C)C(C)C)C(C)C [hαCGRP] |  | 139 ± 18% | 83 ± 10% | 74 ± 9% | 100 ± 7% | 3.39 nM | 16.6 nM | 20.9 nM | 11 nM | 
4 | CC(C)C[C@H](NC(=O)[C@H](CCCCN)NC(=O)CNC(=O)[C@H](CC(C)C)NC(=O)[C@@H](NC(=O)[C@@H]1CSSC[C@H](N)C(=O)N[C@@H](CO)C(=O)N[C@@H](CC(N)=O)C(=O)N[C@@H](CC(C)C)C(=O)N[C@@H](CO)C(=O)N[C@@H]([C@@H](C)O)C(=O)N1)C(C)C)C(=O)N[C@@H](CO)C(=O)N[C@@H](CCC(N)=O)C(=O)N[C@@H](CCC(=O)O)C(=O)N[C@@H](CC(C)C)C(=O)N[C@@H](Cc1c[nH]cn1)C(=O)N[C@@H](CCCCN)C(=O)N[C@@H](CC(C)C)C(=O)N[C@@H](CCC(N)=O)C(=O)N[C@H](C(=O)N[C@@H](Cc1ccc(O)cc1)C(=O)N1CCC[C@H]1C(=O)N[C@@H](CCCNC(=N)N)C(=O)N[C@H](C(=O)N[C@@H](CC(N)=O)C(=O)N[C@H](C(=O)NCC(=O)N[C@@H](CO)C(=O)NCC(=O)N[C@H](C(=O)N1CCC[C@H]1C(N)=O)[C@@H](C)O)[C@@H](C)O)[C@@H](C)O)[C@@H](C)O [sCT] | 140 ± 7% | 90 ± 6% | 102 ± 7% | 139 ± 9% | 100 ± 1% |  |  |  |  | 
5 | CSCC[C@H](NC(=O)CNC(=O)[C@H](CO)NC(=O)[C@H](Cc1ccccc1)NC(=O)[C@H](CCCNC(=N)N)NC(=O)[C@H](Cc1c[nH]cn1)NC(=O)[C@H](Cc1ccccc1)NC(=O)[C@H](CC(N)=O)NC(=O)[C@H](CC(N)=O)NC(=O)[C@H](CC(C)C)NC(=O)[C@H](CC(N)=O)NC(=O)[C@H](CCCNC(=N)N)NC(=O)[C@H](Cc1c[nH]c2ccccc12)NC(=O)[C@H](Cc1ccc(O)cc1)NC(=O)[C@H](C)NC(=O)[C@H](CO)NC(=O)[C@H](CC(C)C)NC(=O)[C@@H](NC(=O)[C@@H]1CSSC[C@H](N)C(=O)N[C@@H](CO)C(=O)N[C@@H](CC(N)=O)C(=O)N[C@@H](CC(C)C)C(=O)N[C@@H](CO)C(=O)N[C@@H]([C@@H](C)O)C(=O)N1)C(C)C)C(=O)NCC(=O)N[C@@H](Cc1ccccc1)C(=O)NCC(=O)N1CCC[C@H]1C(=O)N[C@@H](CCC(=O)O)C(=O)N[C@H](C(=O)N1CCC[C@H]1C(N)=O)[C@@H](C)O [pCT] (H-CSNLSTCVLSAYWRNLNNFHRFSGMGFGPETP-NH2; disulfide 1-7) | 115 ± 7% | 97 ± 4% | 166 ± 16% | 140 ± 15% | 100 ± 2% | 0.0398 nM | 0.603 nM | 0.0316 nM | 0.0398 nM | 1.02 nM
